Measurements taken from patent US20110105389A1 (priority 2009, published 2011).
Where two headings read alike, the source gives them in different places.

Legend:
[1] = molecular target: T1, GHS-R1a receptor (HEK293 cells expressing GHS-R1a receptor) (Homo sapiens, UniProt Q92847); assay: Fluorescence functional assay (ghrelin receptor), Method B2, agonist and antagonist mode; format: cell-based; conditions: functional activity as an antagonist at the ghrelin receptor, Methods B2 and B3
T1 construct: host or cells: HEK293
T1 sequence (Q92847 whole entry): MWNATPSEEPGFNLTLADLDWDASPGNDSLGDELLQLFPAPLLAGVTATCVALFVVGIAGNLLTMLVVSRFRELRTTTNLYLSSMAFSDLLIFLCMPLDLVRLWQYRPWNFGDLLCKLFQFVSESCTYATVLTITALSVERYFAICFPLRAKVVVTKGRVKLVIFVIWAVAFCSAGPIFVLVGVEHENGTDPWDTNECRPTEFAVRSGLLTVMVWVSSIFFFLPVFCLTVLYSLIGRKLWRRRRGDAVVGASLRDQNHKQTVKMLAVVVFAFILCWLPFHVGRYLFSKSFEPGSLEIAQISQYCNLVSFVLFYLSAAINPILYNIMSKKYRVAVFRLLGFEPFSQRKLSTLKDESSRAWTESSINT
Outline: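 Calcium flux read by ImageTrak epifluorescence in HEK293 cells stably expressing GHS-R1a, loaded 1 h at 37 °C with Calcium-3 dye; buffer HBSS/20 mM Hepes, pH 7.4, with probenecid and BSA. Agonists injected after 10 s baseline, read 50 s more; antagonists 3 min. Sigmoidal fits gave EC50 or IC50.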

[2] = molecular target: T2, human ghrelin receptor (GRLN, growth hormone secretagogue receptor, hGHS-R1a) (Homo sapiens, UniProt Q92847); assay: Competitive radioligand binding assay (ghrelin receptor), Method B1
T2 construct: purchased PerkinElmer BioSignal #RBHGHSM, lot#1887; host or cells: HEK-293 cells, stably transfected (membranes)
T2 sequence (Q92847 whole entry): as above
Outline: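 Membranes incubated with compound 30 min at rt in 25 mM Hepes pH 7.4, 1 mM CaCl2, 5 mM MgCl2, 2.5 mM EDTA, 0.4% BSA, max 0.1% DMSO; filtered on PEI-soaked GF/C, washed with cold Tris, scintillation counted. Curves fitted by variable-slope non-linear regression.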

[3] = Metabolic stability in human liver microsomes, Method B8; format: in vitro ADME; conditions: human liver microsomes 0.8 mg/mL, 5 μM compound, 37° C.
Outline: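 Pooled human liver microsomes (15 mixed-sex donors) at 0.8 mg/mL in 100 mM potassium phosphate, pH 7.4, with 1.5 mM NADPH and 8 mM MgCl2. Compounds tested in duplicate at a single 5 μM (0.05% DMSO), incubated at 37° C.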

[4] = Ghrelin receptor binding activity, Method B1

SMILES | Antagonist Activity [1] | IC50 [2] [nM] | HLM, metabolic stability in human liver microsomes [3] [μL/min/mg protein] | IC50 [2, 4] [nM]
CC(C)[C@@H]1NCCOc2ccccc2C#C[C@@H](C)NC(=O)[C@@H](Cc2ccccc2)NC(=O)[C@H](C(C)O)N(C)C1=O (stereo partly shown) [Compound 1688] | A (A <1 nM) | 1 to 10 | 41.4 | –
CC[C@@H]1C#Cc2c(F)cccc2OCCN[C@@H](C(C)C)C(=O)N(C)[C@@H](C(C)O)C(=O)N[C@H](Cc2c[nH]c3ccccc23)C(=O)N1 (stereo partly shown) [Compound 1726] | B (B = 1-10 nM) | – | 41.5 | 10 to 100
CC(C)[C@@H]1NCCOc2ccccc2C#CCNC(=O)[C@@H](Cc2ccccc2)NC(=O)[C@H](C(C)O)N(C)C1=O (stereo partly shown) [Compound 1712] | – | 1 to 10 | 58.2 | –
CC[C@@H]1CCc2ccc(F)cc2OCCN[C@@H](C2(C)CC2)C(=O)N(C)[C@@H](C(C)O)C(=O)N[C@H](Cc2ccccc2)C(=O)N1 (stereo partly shown) [Compound 1746] | B (B = 1-10 nM) | – | 38.6 | 1 to 10
CC(C)[C@@H]1NCCOc2ccccc2C[C@H](O)[C@@H](C)NC(=O)[C@@H](Cc2cccc(F)c2)NC(=O)[C@H](C(C)O)N(C)C1=O (stereo partly shown) [Compound 1503] | B (B = 1-10 nM) | 1 to 10 | 20.9 | –
CC[C@@H]1CCc2ccc(F)cc2OCCN[C@@H](C(C)C)C(=O)N(C)[C@@H](C(C)O)C(=O)N[C@H](Cc2ccc(O)cc2)C(=O)N1 (stereo partly shown) [Compound 1751] | B (B = 1-10 nM) | – | 109.6 | 1 to 10
CCC1CCc2ccc(F)cc2OCCNC(C2(C)CC2)C(=O)N(C)C(C(C)O)C(=O)NC(Cc2c[nH]c3ccccc23)C(=O)N1 (stereo not shown) [Compound 1703] | B (B = 1-10 nM) | – | 44.8 | 1 to 10
CC(O)[C@H]1C(=O)N[C@H](Cc2c[nH]c3ccccc23)C(=O)N[C@H](C)CCc2ccc(F)cc2O[C@H](C)CN[C@@H](C2(C)CC2)C(=O)N1C (stereo partly shown) [Compound 1719] | C (C = 10-100 nM) | – | 23.4 | 10 to 100
CC(C)C1NCCOc2cc(F)ccc2C#CCNC(=O)C(Cc2c[nH]c3ccccc23)NC(=O)C(C(C)O)N(C)C1=O (stereo not shown) [Compound 1693] | C (C = 10-100 nM) | – | 83.8 | 10 to 100
CC(O)[C@H]1C(=O)N[C@H](Cc2c[nH]c3ccccc23)C(=O)N[C@H](C)C#Cc2ccc(F)cc2O[C@H](C)CN[C@@H](C2(C)CC2)C(=O)N1C (stereo partly shown) [Compound 1720] | B (B = 1-10 nM) | – | 23.2 | 10 to 100
CC(C)C1NCCOc2ccccc2C#CCNC(=O)C(Cc2c[nH]c3ccccc23)NC(=O)C(C(C)O)N(C)C1=O (stereo not shown) [Compound 1692] | C (C = 10-100 nM) | – | 121 | 1 to 10
CC[C@@H]1C#Cc2ccccc2O[C@H](C)CN[C@@H](C2(C)CC2)C(=O)N(C)[C@@H](C(C)O)C(=O)N[C@H](Cc2c[nH]c3ccccc23)C(=O)N1 (stereo partly shown) [Compound 1718] | B (B = 1-10 nM) | – | 43.6 | 1 to 10
Cc1cccc(C[C@H]2NC(=O)[C@H](C(C)O)N(C)C(=O)[C@H](C(C)C)NCCOc3ccccc3C[C@H](O)CNC2=O)c1 (stereo partly shown) [Compound 1453] | B (B = 1-10 nM) | 1 to 10 | – | –
CC(O)[C@H]1C(=O)N[C@H](Cc2c[nH]c3ccccc23)C(=O)N[C@H](C)C#Cc2ccccc2OCCN[C@@H](C2(C)CC2)C(=O)N1C (stereo partly shown) [Compound 1713] | B (B = 1-10 nM) | – | 48.8 | 1 to 10
CC[C@@H]1C#Cc2ccccc2OCCN[C@@H](C(C)C)C(=O)N(C)[C@@H](C(C)O)C(=O)N[C@H](Cc2c[nH]c3ccccc23)C(=O)N1 (stereo partly shown) [Compound 1754] | B (B = 1-10 nM) | – | 43.7 | 1 to 10
CC[C@@H]1C#Cc2ccc(F)cc2O[C@H](C)CN[C@@H](C2(C)CC2)C(=O)N(C)[C@@H](C(C)O)C(=O)N[C@H](Cc2c[nH]c3ccccc23)C(=O)N1 (stereo partly shown) [Compound 1707] | B (B = 1-10 nM) | – | 27.3 | 10 to 100
CC[C@@H]1CCc2ccc(F)cc2OCCN[C@@H](C(C)C)C(=O)N(C)[C@@H](C(C)O)C(=O)N[C@H](Cc2c[nH]c3ccccc23)C(=O)N1 (stereo partly shown) [Compound 1505] | B (B = 1-10 nM) | 1 to 10 | 51.5 | –

More lines, now with the values ahead:

Antagonist Activity [1] | IC50 [2] [nM] | HLM, metabolic stability in human liver microsomes [3] [μL/min/mg protein] | IC50 [2, 4] [nM] | SMILES
B (B = 1-10 nM) | 1 to 10 | – | – | CC(C)[C@@H]1NCCOc2cccc(F)c2C#CCNC(=O)[C@@H](Cc2ccccc2)NC(=O)[C@H](C(C)O)N(C)C1=O (stereo partly shown) [Compound 1929]
B (B = 1-10 nM) | – | 47.8 | 1 to 10 | CC[C@@H]1C#Cc2ccc(F)cc2OCCN[C@@H](C(C)C)C(=O)N(C)[C@@H](C(C)O)C(=O)N[C@H](Cc2c[nH]c3ccccc23)C(=O)N1 (stereo partly shown) [Compound 1755]
A (A <1 nM) | – | 47.9 | – | CC(C)[C@@H]1NCCOc2ccccc2C2CCC(C2)NC(=O)[C@@H](Cc2ccc(F)cc2)NC(=O)[C@H](C(C)O)N(C)C1=O (stereo partly shown) [Compound 1903]
B (B = 1-10 nM) | – | 39.6 | 1 to 10 | CC(C)[C@@H]1NCC2CCc3cccc(c3O2)CCCNC(=O)[C@@H](Cc2ccccc2)NC(=O)[C@H](C(C)O)N(C)C1=O (stereo partly shown) [Compound 1777]
B (B = 1-10 nM) | 10 to 100 | 25.3 | – | CC[C@@H]1NCC2CCc3cccc(c3O2)CCCNC(=O)[C@@H](Cc2ccccc2)NC(=O)[C@H](C(C)O)N(C)C1=O (stereo partly shown) [Compound 1780]
A (A <1 nM) | 1 to 10 | 30.9 | – | CC(O)[C@H]1C(=O)N[C@H](Cc2ccccc2)C(=O)NCC#Cc2c(F)cccc2OCCN[C@@H](C2(C)CC2)C(=O)N1C (stereo partly shown) [Compound 1876]
A (A <1 nM) | 1 to 10 | 34.7 | – | CC(O)[C@H]1C(=O)N[C@H](Cc2ccccc2)C(=O)NCC#Cc2ccccc2OCCN[C@@H](C2(C)CC2)C(=O)N1C (stereo partly shown) [Compound 1878]
B (B = 1-10 nM) | 10 to 100 | 58.1 | – | CC(O)[C@H]1C(=O)N[C@H](Cc2ccccc2)C(=O)NCCCc2cccc3c2OC(CC3)CN[C@@H](C2CC2)C(=O)N1C (stereo partly shown) [Compound 1778]
A (A <1 nM) | – | 33.7 | 10 to 100 | CC(C)[C@@H]1NCCOc2ccccc2C2CCC(C2)NC(=O)[C@@H](Cc2c[nH]c3ccccc23)NC(=O)[C@H](C(C)O)N(C)C1=O (stereo partly shown) [Compound 1843]
A (A <1 nM) | – | 60.7 | – | CC(C)[C@@H]1NCCOc2ccccc2C2CCC(C2)NC(=O)[C@@H](Cc2ccccc2)NC(=O)[C@H](C(C)O)N(C)C1=O (stereo partly shown) [Compound 1848]
B (B = 1-10 nM) | 1 to 10 | 14.3 | – | CC(O)[C@H]1C(=O)N[C@H](Cc2ccccc2)C(=O)NCC#Cc2ccc(F)cc2OCCN[C@@H](C2(C)CC2)C(=O)N1C (stereo partly shown) [Compound 1918]
